Results taken from paper PMC6843786, “Temporin-SHa and Its Analogs as Potential Candidates for the Treatment of Helicobacter pylori” (Biomolecules, 2019).

Experiments:
human gastric explants [1] = test: Ex vivo toxicity assay, LDH release from human gastric explants; assay type: cell-based; settings: peptides 100 µM, CTAB 300 µM, % of total release
Protocol: To further evaluate the innocuity of the peptides, ex vivo experiments were performed using human explants as previously described. Briefly, human gastric tissue samples were obtained from patients undergoing surgery at the Hospital Laveran (Marseille, France), unit of gastrointestinal surgery according to a collaborative clinical transfer project. The procedures were approved by the French ethic committee (CODECOH n° DC-2019-3402). All patients agreed for the use of their tissues for research purposes. Samples were taken from healthy patients during sleeve gastrectomy from macroscopically unaffected area as identified by the surgeons. After resection, the specimens were placed in ice-cold oxygenated sterile DMEM solution containing 1% streptomycin/penicillin solution and 50 μg/mL gentamycin and were directly transferred to the laboratory within 15 min on ice. Gastric tissues were extensively washed and maintained in ice-cold culture media containing 1% streptomycin/penicillin solution and 50 μg/mL gentamycin. Tissues were cleaned from vascular vessels and conjunctive tissue using forceps under binocular microscope. Gastric explants (wet weight of 20–30 mg) were then isolated from the cleaned resections using surgical punch (diameter of 0.5 cm^2). […] Finally, the explants were washed three times with culture media without antibiotics and transferred into 24-well plates before being incubated in RPMI media without fetal bovine serum, antibiotics and phenol red at 37 °C in the 5% CO2 incubator with 100 µM of peptides for 2, 4 or 8 h. Phenol red was omitted from the culture media since it interferes with the lactate dehydrogenase (LDH) assay. The detergent cetyl-trimethylammonium bromide (CTAB) at 300 µM was used as positive control of tissue damages. At the end of the incubation, the explants were collected and washed three times with PBS^++ and were fixed overnight at 4 °C with PFA diluted at 4% in PBS. After that, gastric explants were washed twice with PBS and were included in an inclusion medium (TFM-EMS), in transverse position to allow cutting in the crypt-villosity axis using cryostat (Leica CM3050) (Leica Microsystems, Nanterre, France). Four sections of 5 µm thickness were obtained per explant, each section being separated by 100 µm from the next in order to cover all the tissue. Explants were then stained using hematoxylin and eosin (H&E) staining protocol. Briefly, samples were incubated for 8 min in hematoxylin (Sigma-Aldrich) and then allowed to stain by incubation with water for 2 min. Then explants were incubated for 1 min in eosin (Sigma-Aldrich) and then in water for 1 min. This was followed by incubation of explants with ethanol at concentration of 70% then 95% and finally 100% for 2 min each. After blotting excess ethanol, gastric explants were incubated for 15 min with xylene and mounted with coverslip using Eukitt mounting media (EMS, Hatfield, PA, USA). Finally, explants were left overnight to dry before examination of tissue organization under the microscope (Leitz DMRB microscope (Leïca), equipped with Leïca DFC 450C camera). Quantification of the release of LDH was also used in addition to microscopic observations to evaluate the impact of peptides on human gastric explants. Briefly, after 2, 4 or 8 h of incubation of the explants with the peptides, the supernatants of the wells were collected and stored at -80 °C before the LDH assay. The LDH activity was measured using previously described protocol with minor changes. Briefly, 50 µL of supernatants obtained from explants were mixed with 200 µL of Tris-Lactate buffer (containing Tris HCl at 86 mM, L-Lactate at 56 mM and KCl at 172 mM, pH 9.3, all from Sigma-Aldrich) and 20 µL of NAD (at 172 mM, Sigma-Aldrich) into well of 96-wells plates. Increase in OD339nm was then measured at 30 °C after 0, 1, 5, and 10 min using microplate reader (Synergy Mx, Biotek). […]

human gastric explants [2] = test: Ex vivo toxicity assay, histological examination (H&E) of human gastric explants; assay type: cell-based; settings: 2, 4 or 8 h; peptides 100 µM, CTAB 300 µM; H&E staining
Protocol: To further evaluate the innocuity of the peptides, ex vivo experiments were performed using human explants as previously described. Briefly, human gastric tissue samples were obtained from patients undergoing surgery at the Hospital Laveran (Marseille, France), unit of gastrointestinal surgery according to a collaborative clinical transfer project. The procedures were approved by the French ethic committee (CODECOH n° DC-2019-3402). All patients agreed for the use of their tissues for research purposes. Samples were taken from healthy patients during sleeve gastrectomy from macroscopically unaffected area as identified by the surgeons. After resection, the specimens were placed in ice-cold oxygenated sterile DMEM solution containing 1% streptomycin/penicillin solution and 50 μg/mL gentamycin and were directly transferred to the laboratory within 15 min on ice. Gastric tissues were extensively washed and maintained in ice-cold culture media containing 1% streptomycin/penicillin solution and 50 μg/mL gentamycin. […] Quantification of the release of LDH was also used in addition to microscopic observations to evaluate the impact of peptides on human gastric explants. […] The LDH activity was measured using previously described protocol with minor changes. […] Increase in OD339nm was then measured at 30 °C after 0, 1, 5, and 10 min using microplate reader (Synergy Mx, Biotek). […]

CCCCCCCCCCCCCCCC[N+](C)(C)C [CTAB, cetyl-trimethylammonium bromide, reference compound]
LDH release (human gastric explants [1]; 2 h): 81.1%
LDH release (human gastric explants [1]; 4 h): 90.3%
LDH release (human gastric explants [1]; 8 h): 100%
tissue organization by microscopic observation (human gastric explants [2]): major alterations of the tissue architecture
